Assay results: US4701325A, “Injectable aqueous solution containing hydrogensulfite and/or sulfite and anticancerous benzodiazepine compound” (priority 1983, dated 1987)
Counter-ions that a name gives are not always drawn.

Key:
ddY strain mice = assay: Acute toxicity (LD50) in ddY strain mice; format: in vivo; conditions: i.v., mice; 10 times amount of NaHSO3
Procedure: (§1) The materials were administered to ddY strain mice (male, 18-20 g) intravenously to determine the LD50 (mg/Kg). […] Incidentally, NaHSO3 or Na2 SO 3 itself is a substance prescribed in Japanese Parmacopoeia and its safety has been established already.

[1] = system: ear vein of white rabbits; assay: Tissue injury (edema ratio) after intravenous administration into the ear vein of rabbits for 5 days; format: in vivo; conditions: ear vein once a day for 5 days; measured 4 days after final administration; compound B 0.16 mg/Kg/day, NaHSO3 1.6 mg/Kg/day
Procedure: The same materials as those in Example 1 were used to determine the effect thereof administered to white rabbits (male, 2.0-2.3 kg) in groups of four in the ear vein once a day for consective 5 days. The material adminitered to the respective groups was (1) physiological saline, or (2) 0.16 mg of the compound B/Kg/day, (3) 0.16 mg of the compound B+1.6 mg of NaHSO3 /Kg/day or (4) 1.6 mg of NaHSO3 /Kg/day. The solution volumes to be administered were all fixed at 0.5 ml/Kg/day which contains respective material or materials in the above dosage.
For confirmation of the effect, the appearance was observed and the thickness at the administration site was measured 4 days after the final administration to serve as the index of tissue injury.
The edema ratio was determined according to the following equation. [formula]

[2] = Acute toxicity (LD50) in ddY strain mice; format: in vivo; conditions: mouse, in vivo, iv, male ddY mice 18-20 g; combination with 10 times amount of NaHSO3
Procedure: as §1

[3] = Stability of compound B in aqueous solution of NaHSO3 or Na2SO3 by HPLC; format: physicochemical; conditions: 3 hours at room temperature, 0.2 mg/ml compound B, Sample: with 2.0 mg/ml NaHSO3 or Na2SO3, read-out: Ratio of remaining compound B
Procedure: It was confirmed that the stability of the compound B was not affected when an aqueous solution of NaHSO3 or Na2 SO3 was used as the dissolving medium of the compound B. In a sample of 10 ml of an aqueous solution containing 0.2 mg of the compound B and 2.0 mg of NaHSO3 or Na2 SO3 in 1 ml thereof, analysis was made on high-performance liquid chromatography just after dissolving the compound B and after standing the solution for 3 hours at room temperature, to examine the stability of the compound B. The results are as shown in Table 3.

p 388 leukemia = assay: Antitumor activity in p 388 leukemia cancer-bearing BDF1 mice; format: in vivo; conditions: i.v. once a day for 4 days, compound B 2 mg/Kg/day, NaHSO3 or Na2SO3 20 mg/kg/day
Procedure: By the comparative examintion of mean survival days of the mice, index of life saving was calculated by the equation below: [formula]

Row | Compound | Effect on acute toxicity of the compound B (in words) (ddY strain mice) | Edema ratio (%) [1] [%] | LD50 [2] [mg/kg] | remaining at 3 h [3] [%] | Mean survival day (p 388 leukemia; control 10 days) [days] | Index of life saving (%) (p 388 leukemia; relative to physiological saline)
1 | O=S([O-])O.[Na+] [NaHSO3, sodium hydrogensulfite, reference compound] | did not affect the acute toxicity of the compound B at all | 0.0 | – | – | – | –
2 | Cc1ccc2c(c1O)NC(S(=O)O)C1CC(/C=C/C(N)=O)=CN1C2=O (stereo not shown) [Compound B, sodium salt of 5,10,11,11a-terahydro-9-hydroxy-8-methyl-5-oxo-11-sulfino-1H-pyrrolo[2,1-c][1,4]benzodiazepin-2-acrylamide] | – | 169.4 | 6.23 | 100 | 18.0 | 80
